Assay results: patent US9744174B2 (DemeRx, Inc., priority 2013, dated 2017)
pKi: −log10 of the molar value. “Also recorded” adds a separate entry of the source.

Columns and labels:
mu receptor = details: Pearl et al., Brain Research, 675:342-344 (1995); read-out: affinity constant (K value) for the mu receptor; cited from earlier work
[1] = tested on: healthy, drug-free male volunteers; assay: Pupillometry (pupillary miosis) after single oral dose; assay type: in vivo, human; details: single oral 3, 10, 30 or 60 mg, up to 216 hours post-dosing
Protocol: Pulse oximetry and capnography data were collected continuously using a GE Carescape B650 monitoring system from 2 hours prior to dosing and until six hours after dosing, and thereafter at 12, 24, 48 and 72 hours post-dosing. […] Pupillary miosis was assessed by pupillometry.

[2] = tested on: healthy, drug-free male volunteers; assay: Cold pressor test (analgesic effect); assay type: in vivo, human; details: single oral 3-60 mg; duration of hand immersion and VAS pain scores vs placebo
Protocol: Analgesic effect was assessed based on duration of hand immersion in ice water and on visual analog scale (VAS) pain scores upon hand removal from the water bath.
(§1) Safety and tolerability of noribogaine were tested in the group of volunteers from Example 2. […] Safety evaluations included clinical monitoring, recording of adverse events (AEs), safety laboratory tests, vital signs, ECG telemetry from −2 h to 6 h after dosing, and 12-lead electrocardiograms (ECGs) up to 216 hours post-dosing.

[3] = tested on: healthy, drug-free male volunteers; assay: Safety and tolerability: adverse events, vital signs, ECG; assay type: in vivo, human
Protocol: as §1

[4] = tested on: opioid-dependent participants; assay: Efficacy trial: time to resumption of opioid substitution treatment (OST); assay type: in vivo, human
Protocol: (§2) The efficacy of noribogaine in humans was evaluated in opioid-dependent participants in a randomized, placebo-controlled, double-blind trial. […] See U.S. Provisional Application No. 61/852,485, filed Mar. 15, 2013, which is incorporated herein by reference in its entirety.
(§3) In the first cohort, six patients were orally administered a single dose of 60 mg noribogaine, and three patients received placebo. In the second cohort, five patients were orally administered a single dose of 120 mg noribogaine, and three patients received placebo.

[5] = tested on: opioid-dependent participants; assay: QT interval prolongation in the efficacy trial; assay type: in vivo, human
Protocol: as §2, §3

male Sprague Dawley rats = assay: Noribogaine-methadone interaction study: mortality and postdose observations after oral dosing; details: rats; for Number Dead after Methadone: 10 dosed
[6] = Ascending single-dose pharmacokinetics of noribogaine and noribogaine glucuronide (plasma, urine; LCMSMS); details: for CL/F / AUC0-216 / Cmax / Tmax / t1/2 / AUC0-∞: mean (SD)
[7] = varies with the pH of the urine; cited from earlier work
[8] = Noribogaine-methadone interaction study: mortality and postdose observations after oral dosing; details: male, Sprague Dawley, rat, in vivo, po, methadone LD50, rats, oral
[9] = oral, noribogaine 50 mg/kg then methadone 0 mg/kg (vehicle)
[10] = oral, noribogaine 150 mg/kg then methadone 0 mg/kg (vehicle)
[11] = plasma noribogaine, single oral 3 mg
[12] = plasma noribogaine, single oral 10 mg
[13] = plasma noribogaine, single oral 30 mg
[14] = plasma noribogaine, single oral 60 mg
[15] = plasma noribogaine glucuronide after single oral 30 mg noribogaine
[16] = plasma noribogaine glucuronide after single oral 60 mg noribogaine

SMILES: CC[C@H]1CC2C[C@H]3c4[nH]c5ccc(OC)cc5c4CCN(C2)C13 [ibogaine, reference compound]
- pKi (mu receptor): 4.96

SMILES: CC[C@H]1C[C@H]2C[C@H]3c4[nH]c5ccc(O)cc5c4CCN(C2)[C@@H]13 [Noribogaine]
- Pupillary constriction (pupil diameter) [1]: no evidence of pupillary constriction
- Analgesic effect in the cold pressor test [2]: no analgesic effect
- Number of adverse events reported ([3]; 3 mg dose group, two subjects): five
- Number of adverse events reported ([3]; 10 mg dose group, single subject): one
- Number of adverse events reported ([3]; 30 mg dose group, single subject): one
- Adverse events, Mild ([3]; Dose 3 mg): Dizziness; also recorded: Epistaxis; also recorded: Headache; also recorded: Back pain
- Adverse events, Moderate ([3]; Dose 3 mg): Headache
- Adverse events, Mild ([3]; Dose 10 mg): Headache
- Adverse events, Mild ([3]; Dose 30 mg): Headache
- Single increase in QTcF ([3]; one subject dosed with 10 mg, 24 hours post-dosing): > 60 ms
- Oximetry, capnography, respiratory rate ([3]; single oral 3-60 mg): no changes in oximetry or capnography, or changes in respiratory rate
- Vital signs and safety laboratory tests ([3]; single oral 3-60 mg): no changes in vital signs or safety laboratory tests of note
- QTcF values ([3]; single oral 3-60 mg, at any time): ≤ 500 ms
- Therapeutic activity ([4]; 60 mg to 180 mg, inverted-U curve): therapeutic activity at all concentrations
- Estimated serum noribogaine level at which significant withdrawal symptoms return and OST is resumed ([4]; 120 mg presumed treated patients, estimated from FIG. 4 profile): 50 to 60 ng/mL
- Average time to resumption of OST ([4]; 180 mg, 6 presumed (imputed) noribogaine-treated patients): approximately 11.4 hours
- Time to resumption of OST ([4]; (putatively) administered 60 mg noribogaine): 9.6 h
- Average time to resumption of opioids ([4]; second cohort, blinded: single oral 120 mg noribogaine (5 patients) or placebo (3)): approximately 22 hours
- Adverse effects, including hallucinatory effects ([4]; single oral 60 mg or 120 mg): No adverse effects
- Change in the QT interval prolongation ([5]; 180 mg): above 30 ms
- Mean prolongation of the QT interval ([5]; first cohort (60 mg noribogaine or placebo)): less than 10 ms
- Mean prolongation of the QT interval ([5]; second cohort (120 mg noribogaine or placebo)): less than 40 ms
- pKi (mu receptor): 5.58
- Number Dead after Methadone (male Sprague Dawley rats; [9]): 0
- Number Dead after Methadone (male Sprague Dawley rats; [10]): 0
- Number Dead after Methadone (male Sprague Dawley rats; oral, noribogaine 150 mg/kg then methadone 0 mg/kg (vehicle), listed as noribogaine): no deaths
- Postdose observations (male Sprague Dawley rats; oral, approximately 5 hours following noribogaine at 50 mg/kg, a few animals): languid behavior and tremors involving the entire body
- Postdose observations (male Sprague Dawley rats; oral, approximately 5 hours following noribogaine at 150 mg/kg): Salivation, languid behavior, and ataxia
- Postdose observations (male Sprague Dawley rats; oral, following noribogaine 50 and 150 mg/kg): slight ataxia, salivation (slight or severe), and hunched posture
- Percentage of animals with observations of ataxia and salivation (male Sprague Dawley rats; oral, noribogaine 50 mg/kg): 30-40%
- % Dead after Methadone (male Sprague Dawley rats; [9]): 0%
- Percentage of animals with observations of ataxia and salivation (male Sprague Dawley rats; oral, noribogaine 150 mg/kg): 60-70%
- % Dead after Methadone (male Sprague Dawley rats; [10]): 0%
- Persistence of observations following dosing (male Sprague Dawley rats; oral, noribogaine 50 and 150 mg/kg, before methadone): up to 4 hours
- Persistence of adverse observations following dosing (male Sprague Dawley rats; oral, noribogaine alone): 6.5 to 7 h
- Mortality (male Sprague Dawley rats; oral, noribogaine at doses of 0, 50, and 150 mg/kg followed by the interaction article vehicle): no mortality
- Effect on mortality associated with oral methadone (male Sprague Dawley rats; oral noribogaine at doses of 50 and 150 mg/kg): potentiates the mortality
- Dose-proportionality of Cmax and AUC ([6]; noribogaine, 3-60 mg, linear regression): increased linearly with dose
- Time of peak concentrations after oral dosing ([6]; noribogaine, across dose groups 3-60 mg): 2 to 3 h
- CL/F ([6]; noribogaine, single oral 3 mg): 41.4 (7.0) L/h
- CL/F ([6]; noribogaine, single oral 10 mg): 42.3 (12.0) L/h
- CL/F ([6]; noribogaine, single oral 30 mg): 46.9 (16.4) L/h
- CL/F ([6]; noribogaine, single oral 60 mg): 34.0 (11.4) L/h
- AUC0-216 [6, 11]: 72.2 (13.2) ng · hr/ml
- Cmax [6, 11]: 5.2 (1.4) ng/ml
- Tmax [6, 11]: 1.9 (0.6) hr
- t1/2 [6, 11]: 40.9 (8.7) hr
- AUC0-216 [6, 12]: 251.4 (78.5) ng · hr/ml
- Cmax [6, 12]: 14.5 (2.1) ng/ml
- Tmax [6, 12]: 2.9 (1.8) hr
- t1/2 [6, 12]: 49.2 (11.5) hr
- AUC0-216 [6, 13]: 677.6 (221.1) ng · hr/ml
- Tmax [6, 13]: 1.8 (0.6) hr
- t1/2 [6, 13]: 27.6 (7.0))^ hr
- AUC0-216 [6, 14]: 1935.4 (725.4) ng · hr/ml
- Tmax [6, 14]: 2.4 (0.6) hr
- t1/2 [6, 14]: 29.1 (9.3) hr

SMILES: CC=C1N(C)C(C)CC1(c1ccccc1)c1ccccc1 (centres unmarked) [EDDP, 2-ethylidene-1.5-dimethyl-3.3diphenylpyrrolidine]
- Urinary excretion (percentage of a dose) [7]: 3-25%

SMILES: CC[C@H]1C[C@@H]2C[C@H]3c4[nH]c5ccc(OC6OC(C(=O)O)C(O)C(O)C6O)cc5c4CCN(C2)[C@@H]13 (some centres unmarked) [Noribogaine glucuronide]
- Proportion of noribogaine glucuronide Cmax and AUC relative to noribogaine ([6]; both dose groups (30 mg, 60 mg)): 3-4%
- AUC0-216 [6, 15]: 25.7 (9.1) ng · hr/ml
- AUC0-∞ [6, 15]: 25.8 (9.3) ng · hr/ml
- Cmax [6, 15]: 1.8 (0.6) ng/ml
- Tmax [6, 15]: 3.0 (0.6) hr
- t1/2 [6, 15]: 20.6 (4.9) hr
- AUC0-216 [6, 16]: 65.0 (21.5) ng · hr/ml
- AUC0-∞ [6, 16]: 67.1 (21.9) ng · hr/ml
- Cmax [6, 16]: 4.1 (1.2) ng/ml
- Tmax [6, 16]: 3.8 (1.2) hr
- t1/2 [6, 16]: 23.1 (3.0) hr
- Time of peak concentrations after noribogaine dosing ([6]; plasma noribogaine glucuronide, 30 mg and 60 mg dose groups): 3 to 4 h
- Time by which detected in all subjects ([6]; plasma noribogaine glucuronide, 30 mg and 60 mg noribogaine dose groups): ≤ 0.75 h

SMILES: CCC(=O)C(CC(C)N(C)C)(c1ccccc1)c1ccccc1 (centres unmarked) [Methadone, reference compound]
- Urinary excretion (percentage of a dose) [7]: 5-50%
- LD50 ([8]; after 0 mg/kg of noribogaine): 68.2 mg/kg
- LD50 ([8]; after 50 mg/kg of noribogaine): 29.7 mg/kg
- LD50 ([8]; after 150 mg/kg of noribogaine): 8.86 mg/kg
- Number Dead after Methadone (male Sprague Dawley rats; oral, noribogaine 0 mg/kg then methadone 1 mg/kg (table; b148: 10 mg/kg)): 0
- Number Dead after Methadone (male Sprague Dawley rats; oral, noribogaine 0 mg/kg then methadone 3 mg/kg (table; b148: 30 mg/kg)): 1
- Number Dead after Methadone (male Sprague Dawley rats; oral, noribogaine 0 mg/kg then methadone 5 mg/kg (table; b148: 50 mg/kg)): 3
- Persistence of slight languid behavior (male Sprague Dawley rats; oral, methadone alone at 10 mg/kg): 1.75 h
- Postdose observations (male Sprague Dawley rats; oral, methadone alone at 50 mg/kg): prostrate, had tremors, shallow respirations
- Persistence of adverse observations following the methadone dose (male Sprague Dawley rats; oral, methadone at doses of 30 and 50 mg/kg): 3 h
- Postdose observations (male Sprague Dawley rats; oral, within one hour following methadone alone at 10 and 30 mg/kg): slight ataxia, salivation, hunched posture, and languid behavior
